Tests used:
[1] = system: human prostate cancer cells (PC3); assay: Assessment of cytotoxicity by SRB assay, PC3 cells; type: cell-based; settings: 0.01 μM to 100 μM, 72 h
Method: (§1) The human prostate cancer cells (PC3) and human osteosarcoma cells (MG-63) were obtained from Nawah Scientific Inc. (Mokatam, Cairo, Egypt) and cultured in DMEM (Dulbecco's modified eagle's medium), Gibco, USA, supplemented with fetal bovine serum (FBS) at a concentration of 10% and 100 U/mL of penicillin and streptomycin (PS). The Cells were incubated at 37° C. in a humidified environment that contained 5% CO2.
(§2) Cells were seeded in 96-well plates as aliquots of 100 μL cell suspension and incubated in a complete media for 24 h. Afterward, cells were treated with 6-amino-8,9-di(4-methoxyphenyl)-2-oxo-3,9-dihydro-2H-[1,3]thiazolo[5′,4′:5,6]pyrano[2,3-b]pyridine-7-carbonitrile (2) at diverse concentrations ranging from 0.01 μM to 100 μM for 72 h. Then, cells were fixed at 4° C. for one hour with 150 μL of 10% trichloroacetic acid (TCA). After washing the cells five times with distilled water, 70 μL of sulforhodamine (SRB) solution (0.4% w/v) was added and incubated for 10 min at room temperature in a dark place. […] Then, 150 μL of Tris pH 10.5 (10 mM) was added, and the absorbance was measured at 540 nm using a BMG LABTECH®-FLUOstar Omega microplate reader (Ortenberg, Germany). Half maximal inhibitory concentration (IC50) values were calculated for each experiment using GraphPad Prism 6 software. […]
(§3) The inhibition was calculated using the following equation: Inhibition %=100−Average Viability

[2] = system: human osteosarcoma cells (MG-63); assay: Assessment of cytotoxicity by SRB assay, MG-63 cells; type: cell-based; settings: 0.01 μM to 100 μM, 72 h
Method: as §1, §2, §3

melting point: 234 to 236 °C
Structure (SMILES): COc1ccc(-c2c(C#N)c(N)nc3c2C(c2ccc(OC)cc2)c2sc(=O)[nH]c2O3)cc1 (stereo not drawn) [Compound 2, 6-amino-8,9-di(4-methoxyphenyl)-2-oxo-3,9-dihydro-2H-[1,3]thiazolo[5′,4′:5,6]pyrano[2,3-b]pyridine-7-carbonitrile]
antiproliferative activities against cancer cells (PC3) [1]: excellent antiproliferative activities | antiproliferative activities against osteosarcoma (MG-63) cells [2]: excellent antiproliferative activities
